The record followed here is patent US20260217656A1, “Compounds Affecting KRAS” (UNIVERSITAT DE BARCELONA, priority 2022, published 2026).

What all share (assay type): cell-based, human
The test system of assay [1] is Ras effectors ERK and AKT in DLD-1 cells. As to the kind of experiment: Western blot of downstream RAS signaling (P-ERK, P-AKT, P-MEK) in serum-starved DLD-1 cells. The text has this:
(§1) DLD-1 (KRASWT/G13D) (clone V15, #HD PAR-086) colorectal adenocarcinoma cell line and DLD-1 knockout of mutant KRAS allele, DLD-1 KO (KRASWT/−) (clone DWT7, #HD105-002), were obtained from Horizon Discovery Ltd. (Cambridge, UK). hTERT-RPE (KRASWT/WT) immortalized retinal pigment epithelial human cell line was obtained from the […] (ATCC). DLD-1 KO cells stably expressing HA-KRAS G12V were previously generated in our laboratory (Cabot et al., 2021). All cells were grown in DMEM-HAM s F12 (1:1) supplemented with 10% foetal bovine serum (Biological Industries, Israel), penicillin, streptomycin, and nonessential amino acids. Cells were tested once per month for mycoplasma contamination.
Cells were seeded in a media containing 10% FBS for 24 hours and then they were serum starved (0.1% FBS) for the next 24 hours. Afterwards, they were incubated with the different compounds during the times specified in each figure. When indicated, also in order to activate downstream KRAS cell signalling, treatment for 10 minutes with EGF (50 ng/mL) (Sigma-Aldrich) was performed.
Proteins were resolved by SDS-PAGE, transferred onto PVDF membranes (Immobilon-P, Millipore) and Western blot was performed as previously described (Cabot et al, Oncogene 2021). The following primary antibodies were used: anti-c-RAF (BD Transduction 610151, 1:500); anti-phospho-c-RAF S338 (Cell Signaling 9427, 1:500); anti-AKT (Cell Signaling 9272, 1:1000); anti-phospho-AKT T308 (Cell Signaling 4056, 1:1000); anti-phospho-MEK1/2 S221 (Cell Signalling […]); anti-p44/42 MAPK (ERK1/2) (Cell Signaling 9102, 1:2000); anti-phospho-p44/42 MAPK(ERK1/2) T202/Y204 (Cell Signaling 4370, 1:2000); anti-HA (Sigma-Aldrich H6908, 1:1000); anti-cleaved-caspase-3 (Asp175) (Cell Signaling 9661, 1:1000); HRP-coupled secondary antibodies used: goat anti-rabbit (BioRad 170-6515, 1:3000) or goat anti-mouse (BioRad 170 6516, 1:3000).
For analysis of RAS signalling, cells were lysed in a buffer containing 67 mM Tris-HCl pH 6.8 and 2% SDS and then the samples were heated at 97° C. for 15 minutes. Protein concentration of the lysates was assessed using the Lowry method. An aliquot of […] of protein per sample was loaded onto the gels.
We first analyzed the effect of P14 on the activation of downstream RAS signaling pathways (RAF/MEK/ERK and PI3K/AKT) in DLD-1 cells (CRC cells carrying one oncogenic KRAS allele). To this end, DLD-1 serum-starved cells (0.1% FCS) were treated with P14 (100 μM) at different times, and activation of AKT and ERK was evaluated by Western blot. […] As a 3-hour treatment was associated with major effects, we chose this duration for the subsequent experiments with the other compounds. Next, DLD-1 serum-starved cells were treated with P14A-P14C at 100 μM for 3 hours and activation of AKT and ERK was assessed as above. […] The kinetics of RAS downstream signaling was analyzed in P14B-treated cells compared to 10% FBS serum.
For orientation: Immunoblotting shows a protein as a band on a membrane.

Assay [2] has as its system hTERT-RPE cells. Briefly: MTS cell viability assay, hTERT-RPE. To be noted: non-transformed hTERT-RPE cells, at approximately 80 μM.
Source text: as §1
10,000 cells in 50 µL of 10% FBS-containing medium, were cultured for 24 hours and then treated with the compounds (50 μL final volume) for 48 h hours in each well of a 96-well plate (100 μL final volume). MTS viability assay (CellTiter 96® Aqueous One Solution Cell Proliferation Assay, Promega G3580) was assessed following the company conditions. The absorbance of each well was measured with a multimode plate reader (Spark, Tecan) at 490 nm. The percentage of cell viability was calculated by dividing the absorbance of each well by the average absorbance of the control wells. […]
(Formazan colour is commonly taken as a measure of viable cells.)

Assay [3] has as its system DLD-1 cells. Briefly: 3D on-top Matrigel assay. How it is done:
FIG. 6B is a series of images of cells. In total 2.5×10^4 DLD-1 cells were cultured on top of a thin basement membrane matrix (Matrigel) overlaid with a dilute solution of this basement membrane matrix (3D on-top Matrigel assay). At the time of seeding or 24 h later, cells were treated with P14B ([…] after seeding the colonies that had formed were analysed. Representative phase-contrast images are shown. All scale bars, […]
3D on-top Matrigel assay was performed as described in (Cabot et al., 2021).
(§2) Since both inhibition and sustained activation of RAS signaling are related to a decrease in cell survival, we analyzed the viability of the CRC cell lines DLD-1 (expressing oncogenic KRAS) and DLD-1-KO (oncogenic KRAS allele deleted), and the non-transformed cell line hTERT-RPE. […] At the IC50 of approximately 80 μM for DLD-1 cells, the viability of DLD-1-KO and of non-transformed cells was not affected (FIG. 6A). […] The effect of P14B in DLD-1 cells cultured in 3D conditions was also determined. […] Consequently, we conclude that P14B selectively reduces the viability of CRC cells expressing oncogenic KRAS, causing minor effects if these cells have been knocked out for oncogenic KRAS or in non-transformed cells. Thereby, P14B might be considered as an inducer of apoptosis in CRC with oncogenic KRAS.

The test system of assay [4] is DLD-1 cells. Briefly: MTS cell viability assay, DLD-1.
Source text: as §1
MTS viability assay (CellTiter 96® Aqueous One Solution Cell Proliferation Assay, Promega G3580) was assessed following the company conditions. The absorbance of each well was measured with a multimode plate reader (Spark, Tecan) at 490 nm. The percentage of cell viability was calculated by dividing the absorbance of each well by the average absorbance of the control wells.
as §2
[…] Each point corresponds to n=6. The concentration (μM) indicated in the graph is the one in the final 100 μL volume). **** p<0.0001 (t-student test).

[5] abbreviates: DLD-1 serum-starved cells, 100 μM, 3 hours.
Setting [6] is: DLD-1 starved cells, time course 15 min to 6 hours.

A word on the pIC50: it is −log10 of the IC50, conventionally taken in molar units.

Molecules are shown by their SMILES. pIC50: −log10 of the molar value. “Also recorded” adds a separate entry of the source.

For `COc1ccc(C(c2c(C)n[nH]c2O)c2c(C)n[nH]c2O)cc1Oc1ccc([N+](=O)[O-])cc1` [Example P14B], in assay [1] (DLD-1 serum-starved cells (0.1% FCS), 100 μM), the “AKT and ERK phosphorylation” value is reported as “dramatically increased; also recorded: increases endogenous downstream RAS signaling”. In assay [1] (setting [5]), the “activation of AKT and ERK” value was “activated AKT and ERK kinases; also recorded: increase AKT and/or ERK signalling”; the “relative capacity to activate Ras effectors ERK and AKT among the compounds” value is reported as “most efficient; also recorded: greatest capacity to activate Ras signaling; also recorded: highest activation of both Ras effectors”. Also, in assay [1] (setting [6]), the “duration of ERK phosphorylation compared with 10% FBS” value was “maintained for a longer time; also recorded: more sustained”; the “onset of ERK and MEK activation compared with 10% FBS” value is on record as “clearly delayed”. For the same compound, the cell viability result in assay [2] is recorded as “not affected”. The “size of the colonies in Matrigel” value in assay [3] (P14B added 24 h after seeding, 40 μM) was “clear reduction in the size of the colonies”. Besides, the “capacity to form colonies in Matrigel” value in assay [3] (P14B added when seeding the cells, 10 μM) is reported as “drastic reduction in the capacity to form colonies”. Besides, the “maxim cell viability reduction compared with Erlotinib” value in assay [4] (DLD-1, 5000 cells, 48 h treatment) is given as “significantly higher”. In addition, the pIC50 in assay [4] (DLD-1 cells, dose-response 0 to 100 μM, 24 hours) is ~4.10. In assay [4] (DLD-1 cells, specifically at 75 μM and 100 μM), the cell viability result is given as “significantly reduced the cell viability; also recorded: decreases the viability”.
